Experiment: solvent given as SMILES

Question: Which fluorescence lifetime (in ClC(Cl)Cl) does the source give for `CC(C)(C)c1ccc(Oc2cc3c4c(cc(Oc5ccc(C(C)(C)C)cc5)c5c6c(Oc7ccc(C(C)(C)C)cc7)cc7c8c(cc(Oc9ccc(C(C)(C)C)cc9)c(c2c45)c86)C(=O)OC7=O)C(=O)OC3=O)cc1` here?
Answer: Its fluorescence lifetime is 6.4 ns.

Question: For `N#C/C(=C\c1ccc(C=C(c2ccccc2)c2ccccc2)cc1)c1ccccc1`, which fluorescence lifetime (in C1CCOC1) is on record?
Answer: Its fluorescence lifetime is 1 ns.

Question: For `CN(C)c1ccc2ccc3oc(=O)c(-c4ccccc4)nc3c2c1`, which fluorescence lifetime (in c1ccccc1) is on record?
Answer: Its fluorescence lifetime is 7.2 ns.

Question: Which fluorescence lifetime (in c1cc(-c2cccc(-n3c4ccccc4c4ccccc43)c2)cc(-n2c3ccccc3c3ccccc32)c1) does the source give for `CC1(C)c2ccccc2N(c2ccc(-c3nc(C#N)c(C#N)nc3-c3ccc(N4c5ccccc5C(C)(C)c5ccccc54)cc3)cc2)c2ccccc21` here?
Answer: Its fluorescence lifetime is 30 ns.

Question: With `CN(C)c1ccc(C(=Cc2ccc(/C=C/c3ccc(C#N)cc3)cc2)c2ccc(N(C)C)cc2)cc1` as the compound, how does the fluorescence lifetime (in C1CCOC1) read?
Answer: Its fluorescence lifetime is 1 ns.

Question: Which results are given for `COc1cc2c(cc1/C=C/C(=C(C#N)C#N)c1ccccc1)c1ccccc1n2C`?
Answer: fluorescence lifetime (in C1CCOC1): 7.35 ns; fluorescence lifetime (in CC#N): 7.64 ns; fluorescence lifetime (in CCO): 5.52 ns; fluorescence lifetime (in CCOC(C)=O): 6.74 ns; fluorescence lifetime (in CN(C)C=O): 7.2 ns; fluorescence lifetime (in CS(C)=O): 9.07 ns; fluorescence lifetime (in Cc1ccccc1): 7.98 ns; fluorescence lifetime (in ClC(Cl)Cl): 8.11 ns; fluorescence lifetime (in ClCCl): 6.44 ns

Question: With `O=C(c1ccccc1)c1cc2ccc1CCc1ccc(cc1-c1ccc(N(c3ccccc3)c3ccccc3)cc1)CC2` as the compound, how does the fluorescence lifetime (in c1cc(-n2c3ccccc3c3ccccc32)cc(-n2c3ccccc3c3ccccc32)c1) read?
Answer: Its fluorescence lifetime is 17 ns.

Question: Which results are given for `COc1cnc(-c2cc[n+](C3=C(F)C(F)(F)C(F)(F)[C-]3F)cc2)s1`?
Answer: fluorescence lifetime (in CC#N): 2.3 ns; fluorescence lifetime (in CC(C)=O): 2.3 ns; fluorescence lifetime (in CCO): 1.04 ns; fluorescence lifetime (in CN(C)C=O): 0.41 ns; fluorescence lifetime (in CO): 0.54 ns; fluorescence lifetime (in CS(C)=O): 0.22 ns; fluorescence lifetime (in ClC(Cl)Cl): 2.85 ns; fluorescence lifetime (in ClCCl): 2.81 ns

Question: What does the source list for `C(=C\c1ccc(/C=C/c2ccc(N(c3ccccc3)c3ccccc3)cc2)c2nsnc12)/c1ccc(N(c2ccccc2)c2ccccc2)cc1`?
Answer: fluorescence lifetime (in C1CCOC1): 4.53 ns; fluorescence lifetime (in CCOC(C)=O): 4.74 ns; fluorescence lifetime (in CN(C)C=O): 2.75 ns; fluorescence lifetime (in Cc1ccccc1): 4.29 ns; fluorescence lifetime (in ClC(Cl)Cl): 4.21 ns; fluorescence lifetime (in ClCCl): 4.1 ns

Question: Which fluorescence lifetime (in Cc1ccccc1) does the source give for `CC1=CC(C)=[N+]2C1=C(c1ccc(-c3ccc(O)cc3)s1)c1c(C)cc(C)n1[B-]2(F)F` here?
Answer: Its fluorescence lifetime is 3.5 ns.

Question: For `Cc1cc(-n2c3ccccc3c3cc4c(cc32)C2c3ccccc3C4c3ccccc32)c(C)cc1-c1nc(-c2ccccc2)nc(-c2ccccc2)n1`, which fluorescence lifetime (in O=P(c1ccccc1)(c1ccccc1)c1ccccc1Oc1ccccc1P(=O)(c1ccccc1)c1ccccc1) is on record?
Answer: The fluorescence lifetime was 10.5 ns.

Question: With `CC1=[N+]2C(=C(c3ccc(C#N)cc3)c3ccc(C)n3[B-]2(F)F)C=C1` as the compound, how does the fluorescence lifetime (in Cc1ccccc1) read?
Answer: The fluorescence lifetime was 0.55 ns.

Question: With `O=C(O)CCCCCn1c2ccccc2c(=O)c2cc(Br)ccc21` as the compound, how does the fluorescence lifetime (in O) read?
Answer: The fluorescence lifetime was 8.6 ns.

Question: With `CN(C)c1ccc(C(=Cc2ccc(C#N)cc2)c2ccc(N(C)C)cc2)cc1` as the compound, how does the fluorescence lifetime (in C1CCOC1) read?
Answer: Its fluorescence lifetime is 7.1 ns.

Question: With `CCN(CC)c1ccc2cc(C#N)/c(=N\C(=O)c3ccco3)oc2c1` as the compound, how does the fluorescence lifetime (in ClCCl) read?
Answer: The fluorescence lifetime was 3 ns.

Question: With `CCN(CC)c1ccc2cc(-c3nc4ccccc4n3C)c(=O)oc2c1` as the compound, how does the fluorescence lifetime (in CC#N) read?
Answer: The fluorescence lifetime was 2.8 ns.

Question: For `Cc1cc(N(C)C)cc(C)c1/C=C/C=C/c1ccc(C#N)cc1`, which fluorescence lifetime (in C1CCOC1) is on record?
Answer: The fluorescence lifetime was 0.51 ns.

Question: And the fluorescence lifetime (in CC#N)?
Answer: Its fluorescence lifetime is 0.61 ns.

Question: What about the fluorescence lifetime (in CCCCCC) of the same compound?
Answer: The fluorescence lifetime was 0.29 ns.

Question: And the fluorescence lifetime (in CCCCOCCCC)?
Answer: The fluorescence lifetime was 0.38 ns.

Question: And the fluorescence lifetime (in CCO)?
Answer: Its fluorescence lifetime is 0.58 ns.

Question: What about the fluorescence lifetime (in CCOCC) of the same compound?
Answer: Its fluorescence lifetime is 0.49 ns.

Source: the Deep4Chem optical property database
